Laboratory results from patent publication US6656906B1, “Hybrid polypeptides with enhanced pharmacokinetic properties” (Trimeris, Inc., priority 1998, dated 2003).

Columns and labels:
[1] = Rat pharmacokinetic studies, IV, fluorescence HPLC of plasma; type: in vivo, CD rats; settings: IV, male CD rats
Protocol: 250-300 g male CD rats, double jugular catheter, obtained from Charles River Laboratories were used. Peptides were injected in one jugular catheter in a volume of 200 μl of peptide solution (approximately 3.75 mg/ml), dosing solution concentration was determined using the Edelhoch method, (Edelhoch, 1967, Biochemistry 6:1948-1954) method and adjusted based on animal weight such that each animal received a dose of 2.5 mg/kg). Approximately 250-300 μl of blood was removed at predetermined time intervals (0, 15, 30 min and 1, 2, 4, 6, and 8 hours) and added to EDTA capiject tubes. Plasma was removed from pelleted cells upon centrifugation and either frozen or immediately processed for fluorescence HPLC analysis.
100 μl of sample plasma was added to 900 μl of precipitation buffer (acetonitrile, 1.0% TFA, detergent) resulting in precipitation of the majority of plasma proteins. Following centrifugation at 10,000 rpm for 10 min, 400 μl of the supernatant was removed and added to 600 μl of HPLC grade water. Serial dilutions were performed as dictated by concentration of peptide present in each sample in dilution buffer comprised of 40% precipitation buffer and 60% HPLC water. In addition to sample dilutions, serial dilutions of dosing solution were performed in buffer as well as in plasma and used to generate a standard curve relating peak area to known concentration of peptide. This curve was then used to calculate concentration of peptide in plasma taking into account all dilutions performed and quantity injected onto column.

[2] = Single-dose administration to primates (SC, IM, IV), plasma pharmacokinetics; type: in vivo, cynomolgus monkeys; settings: for bioavailability / half-life / AUC(0-inf) / Cmax / Tmax / AUC(0-t): in vivo; for bioavailability: read-out: FR (%) bioavailability relative to intravenous administration; for half-life: read-out: t½,terminal (converted); for AUC(0-t): read-out: AUC(0-24)
Protocol: A washout period of at least three days separated each dosing day. […] The actual milligram amount of test article was calculated using the peptide content that was determined for the batch administered.
Endpoints for analysis included cageside observations, physical examinations and body weight. For the IV phase of the study, blood samples were collected into heparinized tubes at the following time points: immediately after dosing, 0.25, 0.5, 1.5, 3, 6, 12, and 24 hours after dosing. For the IM and SC phases of the study blood samples were collected in heparinized tubes from each animal at the following time points: 0.5, 1, 2, 3, 6, 12, and 24 hours after dosing. Plasma samples were prepared within one hour of collection and flash frozen in liquid nitrogen. Samples analysis was performed using a PcAb ECLIA assay (Blackburn, G. et al., 1991, Clin. Chem. 37:1534-1539; Deaver, D., 1995, Nature 377:758).

[3] = Single-dose administration to rodents (CSI, SC, IV), plasma pharmacokinetics; type: in vivo, Sprague-Dawley albino rats; settings: for bioavailability / AUC(0-t) / AUC(0-inf) / Cmax / half-life / Tmax: rat, in vivo; for bioavailability: read-out: FR (%) relative bioavailability; for half-life: read-out: t1/2, terminal (converted)
Protocol: T1249 was administered to Sprague-Dawley albino rats in a single dose administered by continuous subcutaneous infusion (SCI), subcutaneous (SC) injection or intravenous (IV) injection. Each treatment group consisted of nine rats per sex per group. […] One group received 50 mM carbonate-bicarbonate, pH 8.5, administered as a control. The peptides were given for 12 hours via a polyvinyl chloride/polyethylene catheter surgically implanted subcutaneously in the nape of the neck. […] The actual milligram amount of T1249 was calculated using the peptide content that was determined for the batch administrated.
Endpoints for analysis included cageside observations (twice daily for mortality and moribundity), clinical observations, clinical laboratory parameters, body weight and necropsy. Blood samples were obtained by a sparse sampling technique over a 12 hour time period from three rats per sex per group at each of the following times: 0.5, 1, 2, 4, 6, 8, […], and 12 hours after dose administration. Sample analysis was performed using a PcAb ECLIA assay (Blackburn, G. et al., 1991, Clin. Chem. 37:1534-1539; Deaver, D., 1995, Nature 377:758).

[4] = Acute toxicity, IV through jugular cannula; type: in vivo; settings: 167 mg/kg (highest dose tested), 0.3 ml over 2-3 min
[5] = Penetration into cerebrospinal fluid; type: in vivo, rats; settings: all measurable time points, single dose; below limit of detection
[6] = cynomolgus monkey, IM (0.8 mg/kg)
[7] = cynomolgus monkey, IV (0.8 mg/kg)
[8] = cynomolgus monkey, SC (0.4 mg/kg)
[9] = cynomolgus monkey, SC (0.8 mg/kg)
[10] = cynomolgus monkey, SC (1.6 mg/kg)

## CC[C@H](C)[C@H](NC(=O)[C@H](CCC(N)=O)NC(=O)[C@H](C)NC(=O)[C@H](CCC(N)=O)NC(=O)[C@H](CCC(=O)O)NC(=O)[C@H](CC(C)C)NC(=O)[C@H](CC(C)C)NC(=O)[C@H](C)NC(=O)[C@@H](NC(=O)[C@@H](NC(=O)[C@H](CCCCN)NC(=O)[C@H](CCC(N)=O)NC(=O)[C@H](CCC(=O)O)NC(=O)[C@H](Cc1c[nH]c2ccccc12)NC(=O)[C@H](CCC(=O)O)NC(=O)[C@H](CCC(N)=O)NC(=O)[C@H](Cc1c[nH]c2ccccc12)NC(C)=O)[C@@H](C)CC)[C@@H](C)O)C(=O)N[C@@H](CCC(N)=O)C(=O)N[C@@H](CCC(N)=O)C(=O)N[C@@H](CCC(=O)O)C(=O)N[C@@H](CCCCN)C(=O)N[C@@H](CC(N)=O)C(=O)N[C@@H](CCC(=O)O)C(=O)N[C@@H](Cc1ccc(O)cc1)C(=O)N[C@@H](CCC(=O)O)C(=O)N[C@@H](CC(C)C)C(=O)N[C@@H](CCC(N)=O)C(=O)N[C@@H](CCCCN)C(=O)N[C@@H](CC(C)C)C(=O)N[C@@H](CC(=O)O)C(=O)N[C@@H](CCCCN)C(=O)N[C@@H](Cc1c[nH]c2ccccc12)C(=O)N[C@@H](C)C(=O)N[C@@H](CO)C(=O)N[C@@H](CC(C)C)C(=O)N[C@@H](Cc1c[nH]c2ccccc12)C(=O)N[C@@H](CCC(=O)O)C(=O)N[C@@H](Cc1c[nH]c2ccccc12)C(=O)N[C@@H](Cc1ccccc1)C(N)=O [T1249]
[1]
  beta-phase half-life relative to T20: nearly three times greater than T20
  total AUC relative to T20: nearly three times greater than T20
[2]; IM (0.8 mg/kg)
  t½,terminal: 5.57 h
[2]; IV (0.8 mg/kg), 0.8 mg/kg
  t½,terminal: 5.35 h
[2]; SC (0.8 mg/kg), 0.8 mg/kg
  t½,terminal: 4.83 h
[2]; SC administration, 0.4-1.6 mg/kg
  linearity of pharmacokinetics: linear pharmacokinetics
[2]; both sexes, cynomolgus monkey, plasma, 24 hours after SC and IV administration, read-out: quantifiable plasma levels at 24 hours
  level at 24 h: > 500 ng/mL
[2]; cynomolgus monkey, 0.8 mg/kg, IM (0.8 mg/kg)
  bioavailability: ~64%
[2]; cynomolgus monkey, 0.8 mg/kg, SC (0.8 mg/kg)
  bioavailability: ~92%
[2]; cynomolgus monkey, im, 0.8 mg/kg, IM (0.8 mg/kg)
  half-life: 5.6 h
[2]; cynomolgus monkey, iv, 0.8 mg/kg, IV (0.8 mg/kg)
  half-life: 5.4 h
[2]; cynomolgus monkey, sc, 0.4 mg/kg, SC (0.4 mg/kg)
  half-life: 6.23 h
[2]; cynomolgus monkey, sc, 0.8 mg/kg, SC (0.8 mg/kg)
  half-life: 4.8 h
[2]; cynomolgus monkey, sc, 1.6 mg/kg, SC (1.6 mg/kg)
  half-life: 5.55 h
[2]; [6]
  AUC(0-inf): 59500 ng·h/mL
  Cmax: 6370 ng/mL
  Tmax: 2.32 h
  AUC(0-t): 56400 ng·h/mL
[2]; [7]
  AUC(0-inf): 92500 ng·h/mL
  Cmax: 26700 ng/mL
  AUC(0-t): 87400 ng·h/mL
[2]; [8]
  AUC(0-inf): 40900 ng·h/mL
  Cmax: 3170 ng/mL
  Tmax: 3.97 h
  AUC(0-t): 37500 ng·h/mL
[2]; [9]
  AUC(0-inf): 85300 ng·h/mL
  Cmax: 6850 ng/mL
  Tmax: 4.58 h
  AUC(0-t): 8120 ng·h/mL
[2]; [10]
  AUC(0-inf): 181000 ng·h/mL
  Cmax: 13300 ng/mL
  Tmax: 4.72 h
  AUC(0-t): 168000 ng·h/mL
Molt 4, CEM cells
  cytotoxicity in vitro: No overt evidence of T1249 cytotoxicity
[3]; CSI
  time to steady-state plasma peptide concentrations: approximately four hours
[3]; CSI, 0.5 to 6.5 mg/kg
  dose proportionality of Cpss and AUC: linear pharmacokinetics
[3]; SC injection
  dose dependence of exposure: not dose-dependent
[3]; all dose groups
  changes in body weight, physical observations, hematology and clinical chemistry parameters or macroscopic pathology: no changes
[3]; bolus IV injection
  dose dependence of pharmacokinetics: linear dose-dependent pharmacokinetics
[3]; SC 1.2 mg/kg relative to IV 1.5 mg/kg
  bioavailability: 73%
[3]; SC 15 mg/kg relative to IV 5 mg/kg
  bioavailability: 30%
[3]; CSI, 0.5 mg/kg
  AUC(0-t): 7990 ng·h/mL
[3]; CSI, 2.0 mg/kg
  AUC(0-t): 25900 ng·h/mL
[3]; CSI, 6.5 mg/kg
  AUC(0-t): 120000 ng·h/mL
[3]; IV 1.5 mg/kg
  AUC(0-inf): 47100 ng·h/mL
  AUC(0-t): 45600 ng·h/mL
  Cmax: 15700 ng/mL
  half-life: 2.46 h
[3]; IV 5.0 mg/kg
  AUC(0-inf): 120000 ng·h/mL
  AUC(0-t): 118000 ng·h/mL
  Cmax: 46300 ng/mL
  half-life: 1.86 h
[3]; SC 1.2 mg/kg
  AUC(0-inf): 27600 ng·h/mL
  AUC(0-t): 27000 ng·h/mL
  Cmax: 6370 ng/mL
  Tmax: 1.09 h
  half-life: 2.02 h
[3]; SC 15 mg/kg
  AUC(0-inf): 110000 ng·h/mL
  AUC(0-t): 107000 ng·h/mL
  Cmax: 21500 ng/mL
  Tmax: 1.88 h
  half-life: 2 h
[4]
  acute toxicity (death within 24 hours): not acutely toxic
[5]
  concentration in cerebrospinal fluid (CSF): < 2.0 ng T1249/ml CSF
